Measured values reported in patent US20250262195A1, “METHOD TO PREVENT AND TREAT DIABETIC RETINOPATHY BY CALCIUM CHANNEL BLOCKERS, ANGIOTENSIN CONVERTING ENZYME INHIBITORS, AND ANGIOTENSIN RECEPTOR BLOCKERS” (priority 2022, published 2025).

How the values were obtained:
Type in all cases: in vivo, human
[1] = test system: patient diagnosed with diabetic retinopathy; assay: Treatment of a patient diagnosed with diabetic retinopathy, one eye treated and the other left untreated
Source text: A patient is diagnosed with diabetic retinopathy. A composition comprising the calcium channel blocker nifedipine is directly applied to the vitreous surface of one eye while the other eye is left untreated. […] A patient is diagnosed with diabetic retinopathy. A composition comprising the ACE inhibitor enalapril is directly applied to the vitreous surface of one eye while the other eye is left untreated. […] A patient is diagnosed with diabetic retinopathy. A composition comprising the angiotensin receptor blocker losartan is directly applied to the vitreous surface of one eye while the other eye is left untreated. […] A patient is diagnosed with diabetic retinopathy. A composition comprising the calcium channel blocker nifedipine is applied to the eye by intravitreal or intraocular injection while the other eye is left untreated. […] A patient is diagnosed with diabetic retinopathy. A composition comprising the ACE inhibitor enalapril is applied to the eye by intravitreal or intraocular injection while the other eye is left untreated. […] A patient is diagnosed with diabetic retinopathy. A composition comprising the angiotensin receptor blocker losartan is applied to the eye by intravitreal or intraocular injection while the other eye is left untreated.

[2] = test system: patient successfully treated for diabetic retinopathy; assay: Prevention of recurrence in a patient successfully treated for diabetic retinopathy, one eye treated and the other left untreated; conditions: untreated eye shows signs of recurrence
Source text: A composition comprising the calcium channel blocker nifedipine is directly applied to the vitreous surface of one eye while the other eye is left untreated. […] A composition comprising the ACE inhibitor enalapril is directly applied to the vitreous surface of one eye while the other eye is left untreated. […] A composition comprising the angiotensin receptor blocker losartan is directly applied to the vitreous surface of one eye while the other eye is left untreated. […] A composition comprising the calcium channel blocker nifedipine is applied to the eye by intravitreal or intraocular injection while the other eye is left untreated. […] A composition comprising the ACE inhibitor enalapril is applied to the eye by intravitreal or intraocular injection while the other eye is left untreated. […] A composition comprising the angiotensin receptor blocker losartan is applied to the eye by intravitreal or intraocular injection while the other eye is left untreated.

[3] = test system: patient with diabetic retinopathy; assay: Topical ramiprilat formulation to the eye of a patient with diabetic retinopathy
Procedure: In this example, a patient with diabetic retinopathy is administered a topical formulation comprising ramiprilat to the eye. […] The diabetic retinopathy is therefore treated by the topical formulation.

[4] = test system: patients with diabetic retinopathy; assay: Experimental use: vasodilators applied to patients' eyes, progression monitored at follow-up appointments; conditions: applied to the eye; based on prior experience and observation during treatment of patients
[5] = composition applied by intravitreal or intraocular injection
[6] = composition directly applied to the vitreous surface of one eye

CCOC(=O)[C@H](CCc1ccccc1)N[C@@H](C)C(=O)N1CCC[C@H]1C(=O)O [enalapril]
symptoms of diabetic retinopathy, treated eye compared to untreated eye [1, 5]: reduced symptoms of diabetic retinopathy | symptoms of diabetic retinopathy, treated eye compared to untreated eye [1, 6]: reduced symptoms of diabetic retinopathy | development (recurrence) of diabetic retinopathy in the treated eye [2, 5]: not develop diabetic retinopathy | development (recurrence) of diabetic retinopathy in the treated eye [2, 6]: not develop diabetic retinopathy

Ramiprilat
capillary blood supply to the eye [3]: increases the capillary blood supply | capillary networks in the eye [3]: grows capillary networks | diabetic retinopathy outcome [3]: treated | intraocular pressure [3]: reduction in intraocular pressure | optic nerve [3]: repair to the optic nerve

CCCC(=O)OCOC(=O)C1=C(C)NC(C)=C(C(=O)OC)C1c1cccc(Cl)c1Cl (stereo not drawn) [clevidipine]
effectiveness for the treatment of diabetic retinopathy or its symptoms [4]: effective

COC(=O)C1=C(C)NC(C)=C(C(=O)OC(C)C)C1c1cccc2nonc12 (stereo not drawn) [isradipine]
effectiveness for the treatment of diabetic retinopathy or its symptoms [4]: effective

CCCCc1nc(Cl)c(CO)n1Cc1ccc(-c2ccccc2-c2nn[nH]n2)cc1 [losartan]
symptoms of diabetic retinopathy, treated eye compared to untreated eye [1, 5]: reduced symptoms of diabetic retinopathy | symptoms of diabetic retinopathy, treated eye compared to untreated eye [1, 6]: reduced symptoms of diabetic retinopathy | development (recurrence) of diabetic retinopathy in the treated eye [2, 5]: not develop diabetic retinopathy | development (recurrence) of diabetic retinopathy in the treated eye [2, 6]: not develop diabetic retinopathy
